Measurements: patent US8946215B2, “Hydroxy-substituted imidazo[1,2-a]pyridinecarboxamides and their use” (Bayer Pharma Aktiengesellschaft, priority 2012, dated 2015)
Structures can show the parent of a compound that is named as a salt.

Target: T1, recombinant guanylate cyclase reporter cell line (Rattus norvegicus, UniProt P19686+P20595)
T1 construct: expressed in transfected cells
T1 sequence (P20595 1-619): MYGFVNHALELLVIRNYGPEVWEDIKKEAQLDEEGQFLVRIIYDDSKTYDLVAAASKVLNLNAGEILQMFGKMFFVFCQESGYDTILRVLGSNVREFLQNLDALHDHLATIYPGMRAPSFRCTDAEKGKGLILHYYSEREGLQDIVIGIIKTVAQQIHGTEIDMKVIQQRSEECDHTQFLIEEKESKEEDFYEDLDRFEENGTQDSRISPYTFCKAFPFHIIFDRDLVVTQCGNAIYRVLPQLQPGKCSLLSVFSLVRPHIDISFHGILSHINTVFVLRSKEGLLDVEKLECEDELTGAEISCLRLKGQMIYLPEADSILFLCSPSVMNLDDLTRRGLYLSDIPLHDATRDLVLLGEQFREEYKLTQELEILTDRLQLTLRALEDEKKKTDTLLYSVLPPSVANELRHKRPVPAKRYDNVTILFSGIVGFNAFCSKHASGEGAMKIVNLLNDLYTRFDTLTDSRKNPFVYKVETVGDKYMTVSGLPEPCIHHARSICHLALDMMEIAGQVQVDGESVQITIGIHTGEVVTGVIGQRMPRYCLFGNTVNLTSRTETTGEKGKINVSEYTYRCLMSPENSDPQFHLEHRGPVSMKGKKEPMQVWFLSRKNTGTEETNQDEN
T1 sequence (P19686 1-690): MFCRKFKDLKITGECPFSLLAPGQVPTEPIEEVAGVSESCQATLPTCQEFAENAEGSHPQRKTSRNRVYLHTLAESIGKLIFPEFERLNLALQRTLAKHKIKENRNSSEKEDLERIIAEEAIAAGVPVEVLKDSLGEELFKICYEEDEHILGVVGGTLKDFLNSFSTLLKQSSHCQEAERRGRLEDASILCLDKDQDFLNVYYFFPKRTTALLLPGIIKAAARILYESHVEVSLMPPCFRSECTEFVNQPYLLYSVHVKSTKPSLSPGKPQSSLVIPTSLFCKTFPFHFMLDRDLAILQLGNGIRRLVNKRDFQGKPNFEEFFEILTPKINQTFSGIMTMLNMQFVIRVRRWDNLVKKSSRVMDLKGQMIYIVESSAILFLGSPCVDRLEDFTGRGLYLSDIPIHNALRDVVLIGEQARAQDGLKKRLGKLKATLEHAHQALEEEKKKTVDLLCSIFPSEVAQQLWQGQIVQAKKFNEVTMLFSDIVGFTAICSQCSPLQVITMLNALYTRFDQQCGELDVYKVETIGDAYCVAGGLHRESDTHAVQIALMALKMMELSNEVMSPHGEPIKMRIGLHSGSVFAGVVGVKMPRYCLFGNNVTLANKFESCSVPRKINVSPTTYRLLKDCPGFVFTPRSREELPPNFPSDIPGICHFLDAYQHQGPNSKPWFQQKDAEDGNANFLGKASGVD
Experiment: Action on recombinant guanylate cyclase reporter cell line
Type: cell-based
Settings: in some cases mean values obtained from individual determinations
Summary of the method: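 Cell-based reporter assay with recombinant guanylate cyclase expressed in a reporter cell line, per a published method. Activity reported as minimal effective concentration (MEC), in some cases as the mean of individual determinations.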

SMILES	MEC (minimal effective concentration)
CCCC[C@H](CO)NC(=O)c1c(C)nc2c(OCc3cccc(F)c3F)cccn12 [Example 10]	0.3 µM
Cc1nc2c(OCc3ncccc3F)cccn2c1C(=O)NC(CC(F)(F)F)C(C)(C)O (racemic) [Example 180, rac-8-[(3-Fluoropyridin-2-yl)methoxy]-2-methyl-N-(1,1,1-trifluoro-4-hydroxy-4-methylpentan-3-yl)imidazo[1,2-a]pyridine-3-carboxamide]	1 µM
Cc1nc2c(OCc3ccccc3F)cccn2c1C(=O)NC(CO)CO [Example 51, N-(1,3-dihydroxypropan-2-yl)-8-[(2-fluorobenzyl)oxy]-2-methylimidazo[1,2-a]pyridine-3-carboxamide]	5.5 µM
Cc1cc(OCCC(C(F)(F)F)C(F)(F)F)c2nc(C)c(C(=O)NC3c4ccccc4CC3O)n2c1 (stereo not shown) [Example 172, N-(2-Hydroxy-2,3-dihydro-1H-inden-1-yl)-2,6-dimethyl-8-[4,4,4-trifluoro-3-(trifluoromethyl)-butoxy]imidazo[1,2-a]pyridine-3-carboxamide]	1.0 µM
Cc1nc2c(OCC3CCC3)cccn2c1C(=O)NCCOCCO [Example 98, 8-(cyclobutylmethoxy)-N-[2-(2-hydroxyethoxy)ethyl]-2-methylimidazo[1,2-a]pyridine-3-carboxamide]	3.0 µM
CCCC[C@H](CO)NC(=O)c1c(C)nc2c(OCc3c(F)cc(F)cc3F)cccn12 [Example 15, N-[(2R)-1-Hydroxyhexan-2-yl]-2-methyl-8-[(2,4,6-trifluorobenzyl)oxy]imidazo[1,2-a]pyridine-3-carboxamide]	0.1 µM
CCCC[C@H](CO)NC(=O)c1c(C)nc2c(OCCC(C)C)cccn12 [Example 159, N-[(2R)-1-Hydroxyhexan-2-yl]-2-methyl-8-(3-methylbutoxy)imidazo[1,2-a]pyridine-3-carboxamide]	1.0 µM
CC[C@H](CO)NC(=O)c1c(C)nc2c(OCc3cccc(F)c3F)cccn12 [Example 44, 8-[(2,3-difluorobenzyl)oxy]-N-[(2R)-1-hydroxybutan-2-yl]-2-methylimidazo[1,2-a]-pyridine-3-carboxamide]	0.3 µM
Cc1nc2c(OCc3c(F)cccc3F)cccn2c1C(=O)NC(CC(F)(F)F)C(C)(C)O (single isomer, unassigned; ent-8) [Example 154, ent-8-[(2,6-Difluorobenzyl)oxy]-2-methyl-N-(1,1,1-trifluoro-4-hydroxy-4-methylpentan-3-yl)-imidazo[1,2-a]pyridine-3-carboxamide]	0.03 µM
Cc1nc2c(OCc3c(F)cccc3F)cccn2c1C(=O)NCCOCCO [Example 24]	1.0 µM
CCCC[C@H](CO)NC(=O)c1c(C)nc2c(OCc3c(F)cccc3F)cc(C3CC3)cn12 [Example 61, 6-cyclopropyl-8-[(2,6-difluorobenzyl)oxy]-N-[(2R)-1-hydroxyhexan-2-yl]-2-methylimidazo[1,2-a]pyridine-3-carboxamide]	1.0 µM
Cc1nc2c(OCc3c(F)cccc3F)cccn2c1C(=O)NC1CCC(O)CC1 (racemic) [Example 42, (rac)-8-[(2,6-difluorobenzyl)oxy]-N-(trans-4-hydroxycyclohexyl)-2-methylimidazo[1,2-a]-pyridine-3-carboxamide]	1.0 µM
CCC(O)CNC(=O)c1c(C)nc2c(OCc3c(F)cccc3F)cccn12 (stereo not shown) [Example 30]	0.3 µM
CCC[C@H](CO)NC(=O)c1c(C)nc2c(OCC3CCCCC3)cccn12 [Example 67, 8-(cyclohexylmethoxy)-N-[(2R)-1-hydroxypentan-2-yl]-2-methylimidazo[1,2-a]pyridine-3-carboxamide]	0.03 µM
Cc1nc2c(OCc3c(F)cccc3F)cccn2c1C(=O)NCC1CCCC[C@H]1O (stereo partly shown) [Example 27]	0.3 µM
Cc1nc2c(OCc3c(F)cccc3F)cccn2c1C(=O)NCC(C)(C)CO [Example 41, 8-[(2,6-difluorobenzyl)oxy]-N-(3-hydroxy-2,2-dimethylpropyl)-2-methylimidazo[1,2-a]-pyridine-3-carboxamide]	3.0 µM
Cc1nc2c(OCc3c(F)cccc3F)cc(Cl)cn2c1C(=O)N[C@@H](CO)CCO [Example 128, 6-chloro-8-[(2,6-difluorobenzyl)oxy]-N-[(2R)-1,4-dihydroxybutan-2-yl]-2-methylimidazo[1,2-a]pyridine-3-carboxamide]	0.3 µM
CCCC[C@H](CO)NC(=O)c1c(C)nc2c(OCc3c(F)cccc3F)cc(C)cn12 [Example 133, 8-[(2,6-difluorobenzyl)oxy]-N-[(2R)-1-hydroxyhexan-2-yl]-2,6-dimethylimidazo[1,2-a]pyridine-3-carboxamide]	0.01 µM
CCCC[C@H](CO)NC(=O)c1c(C)nc2c(OCc3cccc(Cl)c3Cl)cccn12 [Example 9]	0.5 µM
CCCC[C@H](CO)NC(=O)c1c(C)nc2c(OCc3c(C)cccc3C)cccn12 [Example 13]	3.0 µM
C[C@@H](CO)NC(=O)c1c(C(F)(F)F)nc2c(OCC3CCCCC3)cccn12 [Example 56, 8-(cyclohexylmethoxy)-N-[(2S)-1-hydroxypropan-2-yl]-2-(trifluoromethyl)imidazo[1,2-a]pyridine-3-carboxamide]	1.0 µM
Cc1nc2c(OCc3ncccc3F)cccn2c1C(=O)NC(CCCC(F)(F)F)C(C)(C)O (single isomer, unassigned; ent-8) [Example 182, ent-8-[(3-fluoropyridin-2-yl)methoxy]-2-methyl-N-(7,7,7-trifluoro-2-hydroxy-2-methylheptan-3-yl)imidazo[1,2-a]pyridine-3-carboxamide (enantiomer A)]	0.65 µM
CC[C@H](CO)NC(=O)c1c(C)nc2c(OCC3CCCCC3)cccn12 [Example 72, 8-(cyclohexylmethoxy)-N-[(2R)-1-hydroxybutan-2-yl]-2-methylimidazo[1,2-a]pyridine-3-carboxamide]	0.1 µM
Cc1cc(OCc2ncccc2F)c2nc(C)c(C(=O)NC(CCC(O)C(F)(F)F)C(C)(C)O)n2c1 (single isomer, unassigned; ent-8) [Example 196, ent-8-[(3-fluoropyridin-2-yl)methoxy]-2,6-dimethyl-N-(7,7,7-trifluoro-2,6-dihydroxy-2-methylheptan-3-yl)imidazo[1,2-a]pyridine-3-carboxamide (enantiomer D)]	3 µM

Same assay, conditions: in some cases mean values obtained from individual determinations, trifluoroacetate

SMILES	MEC (minimal effective concentration)
Cc1nc2c(OCc3c(F)cccc3F)cccn2c1C(=O)NC(CO)CCCC(F)(F)F (racemic) [Example 102, rac-8-[(2,6-difluorobenzyl)oxy]-2-methyl-N-(6,6,6-trifluoro-1-hydroxyhexan-2-yl)-imidazo[1,2-a]pyridine-3-carboxamide trifluoroacetate]	0.1 µM
